# Measured values taken from patent US20110158908A1, “CYCLOSPORIN A-BINDING PROTEIN” (Sapporo Medical University, priority 2007, published 2011).
# Legend:
# [1] = test system: CSABP expression in normal human liver cells; assay: Induction of CSABP expression by inflammatory cytokine in normal human liver cells (real time PCR); type: cell-based; conditions: 8 hours
# Description: Normal human liver cells (Primary Human Liver Hepatocyte Cells, DS PHARMA BIOMEDICAL CO., LTD., Cat. No. ABI-3716) were cultured in a 6 well plate at a density of 2×10^5 cells/well, and human IL-1β, TNFα, or IL-6 (all from BioSource) was added thereto to give a final concentration in the well of 1 pg/mL, 100 pg/mL, or 1 ng/mL respectively. 8 hours after the addition, the cells were collected, and expression of CSABP within the cells was quantitatively determined by real time PCR in the same manner as in Example 5 (2).
# [2] = target: T1, recombinant full length CSABP protein (CSABP-FL) (Homo sapiens, UniProt Q9H6S0, S652N/T565S); assay: Molecular association with CSABP by SPR (Biacore 3000); type: binding; conditions: read-out: dissociation constant KD with CSABP
# T1 construct: pET-CSABP-FL and pET-CSABP-C (FL=full length, C=C terminal region (CSABP ORF: 193rd to 1430th amino acids)); made in house; host or cells: E. coli BL21 (DE3)
# T1 sequence (Q9H6S0 1-1430 T565S/S652N): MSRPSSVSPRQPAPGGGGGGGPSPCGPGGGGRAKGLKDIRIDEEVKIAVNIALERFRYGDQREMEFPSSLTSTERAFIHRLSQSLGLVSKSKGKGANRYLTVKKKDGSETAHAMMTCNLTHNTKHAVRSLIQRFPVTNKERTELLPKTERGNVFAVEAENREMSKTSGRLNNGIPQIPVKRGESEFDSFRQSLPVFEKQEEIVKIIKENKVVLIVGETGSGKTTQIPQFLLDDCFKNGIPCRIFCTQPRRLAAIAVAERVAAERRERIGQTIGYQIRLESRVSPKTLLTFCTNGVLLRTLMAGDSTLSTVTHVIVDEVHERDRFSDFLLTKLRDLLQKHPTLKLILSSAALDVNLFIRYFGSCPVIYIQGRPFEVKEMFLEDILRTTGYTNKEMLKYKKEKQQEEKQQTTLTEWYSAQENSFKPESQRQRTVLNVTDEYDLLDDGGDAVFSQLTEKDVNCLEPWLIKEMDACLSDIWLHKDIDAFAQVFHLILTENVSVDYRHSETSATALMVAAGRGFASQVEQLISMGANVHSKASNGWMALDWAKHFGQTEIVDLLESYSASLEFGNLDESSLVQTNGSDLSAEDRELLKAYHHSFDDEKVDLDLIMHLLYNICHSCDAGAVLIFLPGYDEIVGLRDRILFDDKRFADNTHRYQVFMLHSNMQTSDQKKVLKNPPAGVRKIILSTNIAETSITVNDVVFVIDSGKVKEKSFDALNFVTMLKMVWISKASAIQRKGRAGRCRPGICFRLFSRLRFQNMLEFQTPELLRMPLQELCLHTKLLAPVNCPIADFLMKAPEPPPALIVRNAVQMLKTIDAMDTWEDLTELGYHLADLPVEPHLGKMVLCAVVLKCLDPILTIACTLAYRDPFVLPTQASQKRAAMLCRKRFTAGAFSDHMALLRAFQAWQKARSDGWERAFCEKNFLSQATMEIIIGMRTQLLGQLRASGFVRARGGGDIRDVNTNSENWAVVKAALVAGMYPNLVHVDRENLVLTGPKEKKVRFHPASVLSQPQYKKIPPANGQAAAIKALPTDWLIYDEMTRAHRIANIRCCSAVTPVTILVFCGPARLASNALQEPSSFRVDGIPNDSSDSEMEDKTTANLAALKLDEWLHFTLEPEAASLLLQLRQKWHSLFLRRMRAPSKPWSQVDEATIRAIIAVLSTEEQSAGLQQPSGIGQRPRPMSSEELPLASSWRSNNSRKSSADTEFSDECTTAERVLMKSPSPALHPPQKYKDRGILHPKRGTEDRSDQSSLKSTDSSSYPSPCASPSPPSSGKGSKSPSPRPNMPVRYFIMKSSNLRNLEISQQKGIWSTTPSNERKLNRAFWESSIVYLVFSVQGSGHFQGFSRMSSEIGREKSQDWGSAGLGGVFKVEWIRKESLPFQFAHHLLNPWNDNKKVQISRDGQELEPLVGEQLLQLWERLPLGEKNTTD
# Description: Molecular association between recombinant full length CSABP protein (CSABP-FL) and CsA was evaluated by an SPR (surface plasmon resonance) method. SPR measurement employed Biacore 3000 (Biacore). A purified recombinant CSABP protein was immobilized on Biacore chip CM5 by an amine coupling method (amount immobilized about 10000).
# [3] = test system: CSABP gene expression in MH14 cells; assay: Effect of anti-methylating agent on gene expression in MH14 cells (RT-PCR); type: cell-based, human; conditions: MH14 cells, 0.1, 0.5, 1.0 μM, 4 days
# Description: 10^5 cells/well of MH14 cells (liver cancer cell line) were precultured in a 6 well plate with MH14 cell culture medium for 24 hours, and 5-aza-2′-deoxycytidine (Sigma) was then added thereto. Subsequently, medium exchange was carried out every 24 hours with a medium to which the methylation inhibitor had been added, and the cells were collected after 4 days. The amount of 5-aza-2′-deoxycytidine added was 0, 0.1, 0.5, and 1.0 μM. Total RNA was recovered from the cells thus collected in accordance with a standard method using an RNeasy kit (Qiagen, Cat. 74104). This total RNA was subjected to a reverse transcription reaction in accordance with a standard method using a Transcriptor First Strand cDNA Synthesis Kit (Roche, Cat. 04379012001), and the cDNA thus obtained was used as a template. The primer employed the above-mentioned CSABP primer (SEQ ID Nos: 5 and 6), and a PCR reaction was carried out in a Gotaq® PCR system (Promega) at 95° C., 5 minutes×1 cycle, 95° C., 0.5 minutes, 55° C., 0.5 minutes, 72° C., 2.5 minutes×35 cycles, 72° C., 7 minutes×1 cycle. As a positive control, a reaction was carried out in the same manner using the RASSF1A primers RASSF1A transcript variant D 391 to 415 forward primer: 5′-[…]-3′ (SEQ ID No: 38) and RASSF1A transcript variant D 635 to 660 reverse primer: 5′-[…]-3′ (SEQ ID No: 39), which is a gene for which a relationship between expression and DNA methylation in a promoter region has been shown by Cui X et al., Hum Pathol. 2006; 37 (3): 298-311. As an internal control, a reaction was carried out in the same manner using the above-mentioned G6PDH primer (SEQ ID Nos: 20 and 21).
molecule,measurement,setting,value
IL-1β: human inflammatory cytokine (BioSource),amount of expression of CSABP compared with the control,[1]; 1 pg/mL,some increase
C=CC[C@@H]1/C=C(\C)C[C@H](C)C[C@H](OC)[C@H]2O[C@@](O)(C(=O)C(=O)N3CCCC[C@H]3C(=O)O[C@H](/C(C)=C/[C@@H]3CC[C@@H](O)[C@H](OC)C3)[C@H](C)[C@@H](O)CC1=O)[C@H](C)C[C@@H]2OC [FK506],Kd,[2],2500 nM
Nc1ncn([C@H]2C[C@H](O)[C@@H](CO)O2)c(=O)n1 [5-aza-2′-deoxycytidine],amount of expression of the CSABP gene,[3],increase
same,cytotoxicity,[3],no cytotoxicity was observed
same,expression of RASSF1A (positive control gene),[3],increased
TNF-α,amount of expression of CSABP compared with the control,[1]; 100 pg/mL,about 1.8 times
IL-6: human inflammatory cytokine (BioSource),amount of expression of CSABP compared with the control,[1]; 1 ng/mL,some increase
